In patent US12583884B2, “3beta-(benzyloxy)-17alpha-methyl-pregn-5-en-20-one for use in the treatment of cognitive disorders” (AELIS FARMA, priority 2018, dated 2026):
Where two headings read alike, the source gives them in different places.

Key:
Adrenergic alpha2 = assay: CEREP binding profile: alpha2; details: 10 μM
Text: (§1) The CEREP High-throughput profile consists of a broad collection of 80 transmembrane and soluble receptors, ion channels and G-Protein coupled receptors.

Adrenergic beta1 = biological target: T1, Adrenergic beta1 (Homo sapiens, UniProt P08588); assay: CEREP binding profile: beta1
T1 construct: CEREP
Text: as §1

Angiotensin-II AT1 = biological target: T2, Angiotensin-II AT1 (Homo sapiens, UniProt P30556); assay: CEREP binding profile: AT1
T2 construct: CEREP
Text: as §1

Bradykinin B2 = biological target: T3, Bradykinin B2 (Homo sapiens, UniProt P30411); assay: CEREP binding profile: B2
T3 construct: CEREP
Text: as §1

Cannabinoid CB2 = biological target: T4, Cannabinoid CB2 (Homo sapiens, UniProt P34972); assay: Binding: CB2
T4 construct: CEREP
Text: as §1

Chemokines CXCR2 = biological target: T5, Chemokines CXCR2 (Homo sapiens, UniProt P25025); assay: CEREP binding profile: CXCR2
T5 construct: CEREP
Text: as §1

Chemokines CCR1 = biological target: T6, Chemokines CCR1 (Homo sapiens, UniProt P32246); assay: CEREP binding profile: CCR1
T6 construct: CEREP
Text: as §1

Dopamine D2S = biological target: T7, Dopamine D2S (Homo sapiens, UniProt P14416); assay: CEREP binding profile: D2S
T7 construct: CEREP
Text: as §1

Dopamine D3 = biological target: T8, Dopamine D3 (Homo sapiens, UniProt P35462); assay: CEREP binding profile: D3
T8 construct: CEREP
Text: as §1

Dopamine D5 = biological target: T9, Dopamine D5 (Homo sapiens, UniProt P21918); assay: CEREP binding profile: D5
T9 construct: CEREP
Text: as §1

Galanin GAL1 = Galanin GAL1 (Homo sapiens, UniProt P47211); assay: CEREP binding profile: GAL1
Text: as §1

Galanin GAL2 = Galanin GAL2 (Homo sapiens, UniProt O43603); assay: CEREP binding profile: GAL2
Text: as §1

Histamine H1 = Histamine H1 (Homo sapiens, UniProt P35367); assay: CEREP binding profile: H1
Text: as §1

Histamine H2 = Histamine H2 (Homo sapiens, UniProt P25021); assay: CEREP binding profile: H2
Text: as §1

Melatonin MT1 (ML1A) = Melatonin MT1 (ML1A) (Homo sapiens, UniProt P48039); assay: CEREP binding profile: MT1
Text: as §1

Neurokinin NK1 = Neurokinin NK1 (Homo sapiens, UniProt P25103); assay: CEREP binding profile: NK1
Text: as §1

Neurokinin NK2 = Neurokinin NK2 (Homo sapiens, UniProt P21452); assay: CEREP binding profile: NK2
Text: as §1

Neuropetide Y Y2 = Neuropetide Y Y2 (Homo sapiens, UniProt P49146); assay: CEREP binding profile: Y2
Text: as §1

[1] = biological target: Opioid and opioid-like delta2 (DOP) (Homo sapiens, UniProt P41143); assay: CEREP binding profile: delta2; details: 10 μM
Text: as §1

[2] = biological target: T10, Vasoactive intestinal peptide VPAC1 (VIP1) (Homo sapiens, UniProt P32241); assay: CEREP binding profile: VPAC1
T10 construct: CEREP (contract panel)
Text: as §1

Serotonin 5-HT2A = biological target: T11, Serotonin 5-HT2A (Homo sapiens, UniProt P28223); assay: CEREP binding profile: 5-HT2A
T11 construct: CEREP (contract panel)
Text: as §1

Serotonin 5-HT6 = biological target: T12, Serotonin 5-HT6 (Homo sapiens, UniProt P50406); assay: CEREP binding profile: 5-HT6
T12 construct: CEREP (contract panel)
Text: as §1

Ca2+ channels Ca2+-L = assay: CEREP binding profile: Ca2+-L; details: 10 μM
Text: as §1

K+ channels KV = assay: CEREP binding profile: KV; details: 10 μM
Text: as §1

K+ channels SKCa = assay: CEREP binding profile: SKCa; details: 10 μM
Text: as §1

GABA = assay: CEREP binding profile: GABA; details: 10 μM
Text: as §1

GABA Cl- channel = assay: CEREP binding profile: Cl- channel; details: 10 μM
Text: as §1

Growth factors PDGF = assay: CEREP binding profile: PDGF; details: 10 μM
Text: as §1

Serotonin 5-HT3 = biological target: T13, Serotonin 5-HT3 (Homo sapiens, UniProt P46098); assay: CEREP binding profile: 5-HT3
T13 construct: CEREP
Text: as §1

[3] = test system: Steroid nuclear receptors ER; assay: Binding: ER; details: 10 μM
Text: as §1

[4] = biological target: T14, Steroid nuclear receptors PR (Homo sapiens, UniProt P06401); assay: Binding: PR
T14 construct: CEREP
T14 sequence (P06401 1-933): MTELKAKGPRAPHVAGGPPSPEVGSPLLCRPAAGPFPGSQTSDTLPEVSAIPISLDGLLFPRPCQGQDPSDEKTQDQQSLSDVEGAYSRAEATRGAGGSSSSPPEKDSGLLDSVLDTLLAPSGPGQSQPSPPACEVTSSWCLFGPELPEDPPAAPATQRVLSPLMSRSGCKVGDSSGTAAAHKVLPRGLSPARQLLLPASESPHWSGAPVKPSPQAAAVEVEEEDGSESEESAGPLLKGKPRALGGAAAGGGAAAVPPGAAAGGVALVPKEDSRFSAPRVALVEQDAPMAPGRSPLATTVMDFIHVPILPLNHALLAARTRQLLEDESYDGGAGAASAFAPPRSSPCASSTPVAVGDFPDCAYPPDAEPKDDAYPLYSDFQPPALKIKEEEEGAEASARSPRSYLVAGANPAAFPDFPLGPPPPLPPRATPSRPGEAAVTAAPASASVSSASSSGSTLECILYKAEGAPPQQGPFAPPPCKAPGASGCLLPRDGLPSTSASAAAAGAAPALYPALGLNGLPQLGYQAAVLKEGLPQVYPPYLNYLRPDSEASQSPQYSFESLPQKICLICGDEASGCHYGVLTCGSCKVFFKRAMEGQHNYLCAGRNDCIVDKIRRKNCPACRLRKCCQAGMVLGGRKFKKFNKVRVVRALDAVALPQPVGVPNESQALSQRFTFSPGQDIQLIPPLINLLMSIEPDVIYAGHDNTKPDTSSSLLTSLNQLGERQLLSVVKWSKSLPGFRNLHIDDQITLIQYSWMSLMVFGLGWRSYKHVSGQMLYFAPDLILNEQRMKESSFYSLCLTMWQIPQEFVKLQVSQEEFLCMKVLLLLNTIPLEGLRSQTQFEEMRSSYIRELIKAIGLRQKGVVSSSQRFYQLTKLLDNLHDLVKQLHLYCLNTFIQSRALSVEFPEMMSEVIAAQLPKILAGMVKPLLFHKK
Text: as §1

T5 sequence (P25025 whole entry): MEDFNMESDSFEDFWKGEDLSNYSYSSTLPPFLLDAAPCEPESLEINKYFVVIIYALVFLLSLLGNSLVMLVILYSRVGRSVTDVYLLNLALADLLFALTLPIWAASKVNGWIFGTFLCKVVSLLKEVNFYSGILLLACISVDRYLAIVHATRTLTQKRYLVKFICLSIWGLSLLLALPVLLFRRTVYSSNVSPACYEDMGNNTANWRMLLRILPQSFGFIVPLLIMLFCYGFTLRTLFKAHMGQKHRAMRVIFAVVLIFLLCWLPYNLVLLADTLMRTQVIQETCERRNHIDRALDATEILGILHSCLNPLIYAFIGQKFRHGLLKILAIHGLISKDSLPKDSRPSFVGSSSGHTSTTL
Chain of Histamine H2 (P25021 whole entry): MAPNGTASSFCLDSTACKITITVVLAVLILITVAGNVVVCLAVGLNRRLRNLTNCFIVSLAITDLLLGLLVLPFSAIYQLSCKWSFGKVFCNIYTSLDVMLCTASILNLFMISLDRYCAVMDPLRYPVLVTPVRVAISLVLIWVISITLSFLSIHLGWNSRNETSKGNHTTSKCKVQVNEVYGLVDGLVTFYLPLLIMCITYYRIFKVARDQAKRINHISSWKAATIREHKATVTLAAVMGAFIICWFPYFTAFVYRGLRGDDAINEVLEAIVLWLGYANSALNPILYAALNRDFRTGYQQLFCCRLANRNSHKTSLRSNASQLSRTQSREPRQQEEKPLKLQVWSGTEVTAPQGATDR
Chain of Neurokinin NK1 (P25103 whole entry): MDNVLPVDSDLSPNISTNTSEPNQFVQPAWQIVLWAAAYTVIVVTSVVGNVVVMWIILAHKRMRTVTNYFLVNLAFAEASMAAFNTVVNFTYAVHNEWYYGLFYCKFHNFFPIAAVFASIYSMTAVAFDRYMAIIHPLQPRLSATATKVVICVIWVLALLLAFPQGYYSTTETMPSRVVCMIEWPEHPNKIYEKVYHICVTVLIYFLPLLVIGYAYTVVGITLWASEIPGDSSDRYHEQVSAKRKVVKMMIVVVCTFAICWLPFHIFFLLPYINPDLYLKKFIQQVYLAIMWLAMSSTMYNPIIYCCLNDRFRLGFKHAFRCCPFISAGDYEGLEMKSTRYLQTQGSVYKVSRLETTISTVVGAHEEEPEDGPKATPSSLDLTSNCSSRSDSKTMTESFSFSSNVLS
Chain of Melatonin MT1 (ML1A) (P48039 whole entry): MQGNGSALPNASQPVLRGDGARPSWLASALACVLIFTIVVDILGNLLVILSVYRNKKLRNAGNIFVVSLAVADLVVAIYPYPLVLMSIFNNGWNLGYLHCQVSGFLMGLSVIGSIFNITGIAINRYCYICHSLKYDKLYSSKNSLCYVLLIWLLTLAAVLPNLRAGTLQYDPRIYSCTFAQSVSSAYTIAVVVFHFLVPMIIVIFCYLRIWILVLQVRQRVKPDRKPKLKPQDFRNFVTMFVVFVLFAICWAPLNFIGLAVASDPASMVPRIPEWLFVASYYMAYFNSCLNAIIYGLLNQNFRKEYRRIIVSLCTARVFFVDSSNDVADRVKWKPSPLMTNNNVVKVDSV
T4 sequence (P34972 whole entry): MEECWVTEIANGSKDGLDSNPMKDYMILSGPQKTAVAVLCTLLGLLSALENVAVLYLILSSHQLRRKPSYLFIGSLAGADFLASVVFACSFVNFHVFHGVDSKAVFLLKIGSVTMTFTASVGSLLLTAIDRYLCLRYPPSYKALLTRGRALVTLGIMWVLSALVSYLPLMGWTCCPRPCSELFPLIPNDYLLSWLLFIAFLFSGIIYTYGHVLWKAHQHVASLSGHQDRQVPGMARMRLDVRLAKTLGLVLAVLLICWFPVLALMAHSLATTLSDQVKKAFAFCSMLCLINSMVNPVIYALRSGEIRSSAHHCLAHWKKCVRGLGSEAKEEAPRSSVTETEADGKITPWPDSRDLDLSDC
Chain of Galanin GAL1 (P47211 whole entry): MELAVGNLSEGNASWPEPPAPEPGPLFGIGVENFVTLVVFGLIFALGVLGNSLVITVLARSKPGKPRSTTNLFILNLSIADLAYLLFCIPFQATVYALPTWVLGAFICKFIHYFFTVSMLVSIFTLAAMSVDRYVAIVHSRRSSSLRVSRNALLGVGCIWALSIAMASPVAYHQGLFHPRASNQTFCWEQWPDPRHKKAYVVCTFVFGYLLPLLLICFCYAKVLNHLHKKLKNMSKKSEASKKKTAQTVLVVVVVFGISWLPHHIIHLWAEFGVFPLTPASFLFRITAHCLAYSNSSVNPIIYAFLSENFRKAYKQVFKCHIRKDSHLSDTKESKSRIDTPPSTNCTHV
T3 sequence (P30411 whole entry): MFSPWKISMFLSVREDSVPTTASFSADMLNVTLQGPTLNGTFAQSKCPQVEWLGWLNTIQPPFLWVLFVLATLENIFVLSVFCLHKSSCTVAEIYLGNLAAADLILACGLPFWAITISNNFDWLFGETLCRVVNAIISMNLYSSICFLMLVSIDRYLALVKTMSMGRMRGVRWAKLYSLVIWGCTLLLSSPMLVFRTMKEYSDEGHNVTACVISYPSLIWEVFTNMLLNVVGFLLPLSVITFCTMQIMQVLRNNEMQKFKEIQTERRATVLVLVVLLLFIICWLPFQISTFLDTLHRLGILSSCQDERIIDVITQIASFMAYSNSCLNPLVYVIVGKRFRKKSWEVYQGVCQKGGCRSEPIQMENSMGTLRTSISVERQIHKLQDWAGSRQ
Chain of Histamine H1 (P35367 whole entry): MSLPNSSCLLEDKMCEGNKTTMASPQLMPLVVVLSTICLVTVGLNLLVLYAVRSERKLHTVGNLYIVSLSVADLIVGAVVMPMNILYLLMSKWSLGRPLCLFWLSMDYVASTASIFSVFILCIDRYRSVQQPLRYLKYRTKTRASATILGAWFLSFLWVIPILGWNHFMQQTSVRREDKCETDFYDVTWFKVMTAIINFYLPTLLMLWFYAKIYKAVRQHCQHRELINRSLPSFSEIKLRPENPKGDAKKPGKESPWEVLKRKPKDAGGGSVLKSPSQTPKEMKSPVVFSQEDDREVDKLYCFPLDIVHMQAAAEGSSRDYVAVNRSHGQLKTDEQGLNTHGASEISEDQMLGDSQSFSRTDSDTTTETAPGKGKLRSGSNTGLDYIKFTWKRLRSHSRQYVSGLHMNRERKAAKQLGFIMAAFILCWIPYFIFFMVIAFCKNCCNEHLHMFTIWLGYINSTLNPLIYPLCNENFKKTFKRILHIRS
T9 sequence (P21918 whole entry): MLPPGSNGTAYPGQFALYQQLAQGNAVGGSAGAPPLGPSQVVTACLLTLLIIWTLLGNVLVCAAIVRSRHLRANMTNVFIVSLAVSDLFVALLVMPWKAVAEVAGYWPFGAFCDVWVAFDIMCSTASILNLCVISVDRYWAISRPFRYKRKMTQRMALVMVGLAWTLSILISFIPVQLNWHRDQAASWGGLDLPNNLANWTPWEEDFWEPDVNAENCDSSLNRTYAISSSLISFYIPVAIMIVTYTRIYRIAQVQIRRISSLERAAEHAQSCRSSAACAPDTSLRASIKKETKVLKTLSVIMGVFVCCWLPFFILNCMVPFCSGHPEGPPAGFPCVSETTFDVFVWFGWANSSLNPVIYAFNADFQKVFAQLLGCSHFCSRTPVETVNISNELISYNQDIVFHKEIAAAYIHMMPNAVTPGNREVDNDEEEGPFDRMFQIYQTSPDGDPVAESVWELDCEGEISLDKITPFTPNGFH
T13 sequence (P46098 24-478): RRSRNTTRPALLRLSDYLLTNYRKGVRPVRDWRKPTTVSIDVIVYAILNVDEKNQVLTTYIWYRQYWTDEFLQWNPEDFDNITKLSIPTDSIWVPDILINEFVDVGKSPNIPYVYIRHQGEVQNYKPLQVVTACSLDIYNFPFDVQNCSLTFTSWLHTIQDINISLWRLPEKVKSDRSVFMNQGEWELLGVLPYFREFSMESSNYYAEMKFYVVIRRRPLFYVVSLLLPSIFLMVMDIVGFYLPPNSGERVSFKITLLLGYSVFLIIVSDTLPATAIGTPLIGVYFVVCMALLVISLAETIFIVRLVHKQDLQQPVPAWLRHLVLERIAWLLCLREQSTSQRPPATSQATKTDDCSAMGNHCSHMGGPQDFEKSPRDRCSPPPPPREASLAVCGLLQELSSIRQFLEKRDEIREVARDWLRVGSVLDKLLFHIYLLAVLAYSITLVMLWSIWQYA
T12 sequence (P50406 whole entry): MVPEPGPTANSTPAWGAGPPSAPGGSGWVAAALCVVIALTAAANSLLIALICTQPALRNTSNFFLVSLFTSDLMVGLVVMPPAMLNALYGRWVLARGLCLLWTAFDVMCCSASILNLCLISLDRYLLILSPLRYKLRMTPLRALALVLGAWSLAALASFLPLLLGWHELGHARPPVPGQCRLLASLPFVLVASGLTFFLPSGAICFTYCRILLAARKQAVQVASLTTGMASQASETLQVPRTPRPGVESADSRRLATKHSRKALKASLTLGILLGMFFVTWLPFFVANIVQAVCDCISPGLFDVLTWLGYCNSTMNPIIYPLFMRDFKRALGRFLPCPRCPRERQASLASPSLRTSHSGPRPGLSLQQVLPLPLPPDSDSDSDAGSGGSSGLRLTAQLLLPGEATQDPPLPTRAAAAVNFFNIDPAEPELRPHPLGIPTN
T11 sequence (P28223 whole entry): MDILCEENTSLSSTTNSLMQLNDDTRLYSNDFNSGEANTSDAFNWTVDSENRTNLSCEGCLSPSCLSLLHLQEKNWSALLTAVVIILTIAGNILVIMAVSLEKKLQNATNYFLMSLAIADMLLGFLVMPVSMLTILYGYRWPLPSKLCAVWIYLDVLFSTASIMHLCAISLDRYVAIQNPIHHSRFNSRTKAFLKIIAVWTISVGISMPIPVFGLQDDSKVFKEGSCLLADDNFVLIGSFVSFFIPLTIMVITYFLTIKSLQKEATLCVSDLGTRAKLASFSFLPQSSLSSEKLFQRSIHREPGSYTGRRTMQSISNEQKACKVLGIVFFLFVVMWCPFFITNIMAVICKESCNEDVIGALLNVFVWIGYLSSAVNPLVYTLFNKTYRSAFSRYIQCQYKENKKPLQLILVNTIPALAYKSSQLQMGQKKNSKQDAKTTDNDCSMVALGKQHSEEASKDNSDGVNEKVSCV

SMILES	% Inhibition (Adrenergic alpha2) [%]	inhibition at 10 µM (Angiotensin-II AT1) [%]	inhibition at 10 µM (Bradykinin B2) [%]	inhibition at 10 µM (Chemokines CXCR2) [%]	inhibition at 10 µM (Chemokines CCR1) [%]	inhibition at 10 µM (Galanin GAL1) [%]	inhibition at 10 µM (Galanin GAL2) [%]	inhibition at 10 µM (Histamine H1) [%]	inhibition at 10 µM (Histamine H2) [%]	inhibition at 10 µM (Melatonin MT1 (ML1A)) [%]	inhibition at 10 µM (Neurokinin NK1) [%]	inhibition at 10 µM (Neurokinin NK2) [%]	inhibition at 10 µM (Neuropetide Y Y2) [%]	% Inhibition [1] [%]	inhibition at 10 µM [2] [%]	% Inhibition (Ca2+ channels Ca2+-L) [%]	% Inhibition (K+ channels KV) [%]	% Inhibition (K+ channels SKCa) [%]	Inhibition % (GABA) [%]	Inhibition % (GABA Cl- channel) [%]	other results
CC(=O)[C@@]1(C)CC[C@H]2[C@@H]3CC=C4C[C@@H](OCc5ccccc5)CC[C@]4(C)[C@H]3CC[C@@]21C [3Bn17MeP, 3β-benzyloxy, 17α-methyl-pregn-5-en-20-one]	−1	-13	0	0	-13	-26	-11	3	12	-8	8	-12	-6	−3	-17	12	−15	−3	10	1	% Inhibition (Adrenergic beta1; 10 μM): 7%; inhibition at 10 µM (Cannabinoid CB2): 2%; % Inhibition (Dopamine D2S; 10 μM): 6%; % Inhibition (Dopamine D3; 10 μM): −2%; % Inhibition (Dopamine D5; 10 μM): −6%; inhibition at 10 µM (Serotonin 5-HT2A): -8%; % Inhibition (Serotonin 5-HT6; 10 μM): −1%; Inhibition % (Growth factors PDGF): −13%; Inhibition % (Serotonin 5-HT3; 10 μM): 4%; Inhibition % [3]: −5%; inhibition at 10 µM [4]: 20%
CC(=O)[C@H]1CC[C@H]2[C@@H]3CC=C4C[C@@H](O)CC[C@]4(C)[C@H]3CC[C@]12C [pregnenolone, reference compound]	−2	-28	-9	-10	-10	-16	1	0	9	26	17	-1	-9	9	-10	−19	−23	−8	10	29	inhibition at 10 µM (Adrenergic beta1): 4%; inhibition at 10 µM (Cannabinoid CB2; CB2, 10 μM, read-out: % Inhibition): -19%; inhibition at 10 µM (Dopamine D2S): 5%; inhibition at 10 µM (Dopamine D3): 11%; inhibition at 10 µM (Dopamine D5): -4%; inhibition at 10 µM (Serotonin 5-HT2A; 5-HT2A, 10 μM, read-out: % Inhibition): -1%; inhibition at 10 µM (Serotonin 5-HT6): 5%; Inhibition % (Growth factors PDGF): −15%; inhibition at 10 µM (Serotonin 5-HT3): 6%; Inhibition % [3]: 26%; inhibition at 10 µM [4]: > 80%; Inhibition % ([4]; 10 μM): 87%
